Data: the supplement of paper PMC5662764
± gives the standard deviation of the averaged measurements.

Legend:
Assay in all cases: normalised growth rate inhibition (GR value) relative to DMSO control (GR (1 = untreated growth, 0 = cytostasis, <0 = cytotoxic)); higher = less growth inhibition
Details in all cases: 72 h
MDAMB231 = test system: MDAMB231
Method: (§1)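 Breast cancer cell lines (BT-20, Hs 578T, MCF 10A, MCF7, MDA-MB-231, SK-BR-3) were plated in 384-well plates and treated 24 h later with drugs at six concentrations (0.04-10 µM). Viable cells were counted by Hoechst/dead-cell-stain imaging at 0 and 72 h. Counts were normalised to DMSO controls on the same plate to give the relative cell count and the growth-rate inhibition (GR) value; technical plate triplicates were averaged for each biological replicate.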

SKBR3 = test system: SKBR3
Method: as §1

BT20 = test system: BT20
Method: as §1

HS578T = test system: HS578T
Method: as §1

MCF10A = test system: MCF10A
Method: as §1

MCF7 = test system: MCF7
Method: as §1

Compound	normalised growth rate inhibition (MDAMB231; 0.04 µM)	normalised growth rate inhibition (MDAMB231; 0.12 µM)	normalised growth rate inhibition (MDAMB231; 0.37 µM)	normalised growth rate inhibition (MDAMB231; 1.11 µM)	normalised growth rate inhibition (MDAMB231; 3.33 µM)	normalised growth rate inhibition (MDAMB231; 10 µM)	normalised growth rate inhibition (SKBR3; 0.04 µM)	normalised growth rate inhibition (SKBR3; 0.12 µM)	normalised growth rate inhibition (SKBR3; 0.37 µM)	normalised growth rate inhibition (SKBR3; 1.11 µM)	normalised growth rate inhibition (SKBR3; 3.33 µM)	normalised growth rate inhibition (SKBR3; 10 µM)	normalised growth rate inhibition (BT20; 0.04 µM)	normalised growth rate inhibition (BT20; 0.12 µM)	normalised growth rate inhibition (BT20; 0.37 µM)	normalised growth rate inhibition (BT20; 1.11 µM)	normalised growth rate inhibition (BT20; 3.33 µM)	normalised growth rate inhibition (BT20; 10 µM)	normalised growth rate inhibition (HS578T; 0.04 µM)	normalised growth rate inhibition (HS578T; 0.12 µM)	normalised growth rate inhibition (HS578T; 0.37 µM)	normalised growth rate inhibition (HS578T; 1.11 µM)	normalised growth rate inhibition (HS578T; 3.33 µM)	normalised growth rate inhibition (HS578T; 10 µM)	normalised growth rate inhibition (MCF10A; 0.04 µM)	normalised growth rate inhibition (MCF10A; 0.12 µM)	normalised growth rate inhibition (MCF10A; 0.37 µM)	normalised growth rate inhibition (MCF10A; 1.11 µM)	normalised growth rate inhibition (MCF10A; 3.33 µM)	normalised growth rate inhibition (MCF10A; 10 µM)	normalised growth rate inhibition (MCF7; 0.04 µM)	normalised growth rate inhibition (MCF7; 0.12 µM)	normalised growth rate inhibition (MCF7; 0.37 µM)	normalised growth rate inhibition (MCF7; 1.11 µM)	normalised growth rate inhibition (MCF7; 3.33 µM)	normalised growth rate inhibition (MCF7; 10 µM)
Cc1ncc(-c2ccnc(Nc3ccc(S(C)(=O)=O)cc3)n2)n1C(C)C [AZD-5438]	0.849 ± 0.1	0.633 ± 0.069	0.31 ± 0.071	-0.0453 ± 0.074	-0.205 ± 0.15	-0.308 ± 0.18	0.891 ± 0.036	0.628 ± 0.013	0.292 ± 0.086	-0.137 ± 0.12	-0.28 ± 0.15	-0.453 ± 0.2	0.884 ± 0.086	0.655 ± 0.14	0.354 ± 0.2	0.0675 ± 0.11	-0.117 ± 0.1	-0.372 ± 0.15	0.908 ± 0.037	0.679 ± 0.063	0.274 ± 0.069	-0.0129 ± 0.054	-0.104 ± 0.095	-0.186 ± 0.093	0.958 ± 0.02	0.797 ± 0.087	0.42 ± 0.18	-0.0201 ± 0.058	-0.199 ± 0.24	-0.188 ± 0.19	0.798 ± 0.13	0.373 ± 0.11	0.0311 ± 0.046	-0.106 ± 0.11	-0.277 ± 0.036	-0.438 ± 0.14
Cc1cc([C@@H](C)Nc2ccccc2C(=O)O)c2nc(N3CCOCC3)cc(=O)n2c1 [AZD-6482]	0.932 ± 0.013	0.888 ± 0.0098	0.867 ± 0.023	0.752 ± 0.083	0.648 ± 0.11	0.446 ± 0.21	0.988 ± 0.013	0.915 ± 0.063	1 ± 0.077	0.87 ± 0.072	0.404 ± 0.078	-0.107 ± 0.21	0.974 ± 0.05	0.895 ± 0.079	0.758 ± 0.059	0.52 ± 0.078	0.245 ± 0.08	-0.0918 ± 0.069	0.929 ± 0.03	0.89 ± 0.023	0.855 ± 0.034	0.768 ± 0.039	0.678 ± 0.092	0.337 ± 0.16	0.993 ± 0.019	0.952 ± 0.056	0.938 ± 0.055	0.891 ± 0.094	0.842 ± 0.14	0.36 ± 0.24	1.05 ± 0.078	0.954 ± 0.065	0.988 ± 0.066	0.906 ± 0.029	0.673 ± 0.078	0.0729 ± 0.13
NC(=O)Nc1cc(-c2cccc(F)c2)sc1C(=O)N[C@H]1CCCNC1 [AZD-7762]	0.7 ± 0.19	0.387 ± 0.1	0.196 ± 0.21	-0.0971 ± 0.13	-0.246 ± 0.14	-0.29 ± 0.16	0.0117 ± 0.2	-0.11 ± 0.19	-0.168 ± 0.17	-0.273 ± 0.16	-0.301 ± 0.14	-0.341 ± 0.13	1.05 ± 0.054	0.874 ± 0.14	0.634 ± 0.15	0.262 ± 0.15	-0.0616 ± 0.12	-0.418 ± 0.099	0.41 ± 0.2	0.0861 ± 0.15	-0.0107 ± 0.13	-0.108 ± 0.14	-0.187 ± 0.13	-0.289 ± 0.13	0.878 ± 0.077	0.749 ± 0.11	0.647 ± 0.1	0.43 ± 0.097	0.188 ± 0.052	-0.177 ± 0.082	0.27 ± 0.063	0.176 ± 0.061	0.0985 ± 0.048	-0.000407 ± 0.031	-0.103 ± 0.015	-0.276 ± 0.042
COc1ccc(-c2ccc3c(N4CCOC[C@@H]4C)nc(N4CCOC[C@@H]4C)nc3n2)cc1CO [AZD-8055]	0.484 ± 0.046	0.317 ± 0.048	0.245 ± 0.0043	0.224 ± 0.015	0.146 ± 0.099	-0.0657 ± 0.25	-0.0402 ± 0.13	-0.0898 ± 0.17	-0.0997 ± 0.15	-0.12 ± 0.1	-0.137 ± 0.12	-0.363 ± 0.15	0.3 ± 0.14	0.179 ± 0.12	0.0816 ± 0.063	0.0556 ± 0.071	-0.00646 ± 0.086	-0.306 ± 0.36	0.255 ± 0.041	0.187 ± 0.031	0.176 ± 0.022	0.16 ± 0.023	0.111 ± 0.073	-0.22 ± 0.29	0.494 ± 0.1	0.296 ± 0.088	0.205 ± 0.048	0.175 ± 0.027	0.146 ± 0.012	-0.102 ± 0.39	0.0296 ± 0.035	-0.00352 ± 0.044	-0.0152 ± 0.064	-0.00932 ± 0.072	-0.0344 ± 0.067	-0.216 ± 0.23
Cc1cc(C(=O)NOCCO)c(Nc2ccc(I)cc2F)n(C)c1=O [AZD-8330]	0.0852 ± 0.054	0.0627 ± 0.033	0.0584 ± 0.026	0.0698 ± 0.013	0.0774 ± 0.044	0.0933 ± 0.0085	0.497 ± 0.12	0.64 ± 0.045	0.708 ± 0.055	0.76 ± 0.064	0.778 ± 0.048	0.814 ± 0.076	0.685 ± 0.018	0.741 ± 0.034	0.748 ± 0.0083	0.739 ± 0.025	0.786 ± 0.01	0.803 ± 0.022	0.244 ± 0.066	0.212 ± 0.072	0.217 ± 0.11	0.213 ± 0.11	0.217 ± 0.1	0.197 ± 0.11	0.0964 ± 0.11	0.0999 ± 0.1	0.113 ± 0.08	0.131 ± 0.068	0.142 ± 0.075	0.143 ± 0.1	0.331 ± 0.077	0.33 ± 0.043	0.342 ± 0.041	0.41 ± 0.049	0.405 ± 0.029	0.465 ± 0.025
CC[C@@H]1C(=O)N(C)c2cnc(Nc3ccc(C(=O)NC4CCN(C)CC4)cc3OC)nc2N1C1CCCC1 [BI-2536]	0.0155 ± 0.14	0.00874 ± 0.1	0.00566 ± 0.14	0.0242 ± 0.14	0.0274 ± 0.12	-0.0537 ± 0.25	-0.136 ± 0.22	-0.151 ± 0.18	-0.109 ± 0.23	-0.15 ± 0.23	-0.158 ± 0.2	-0.208 ± 0.25	-0.177 ± 0.15	-0.203 ± 0.19	-0.198 ± 0.17	-0.163 ± 0.16	-0.143 ± 0.14	-0.137 ± 0.17	-0.128 ± 0.11	-0.125 ± 0.14	-0.0972 ± 0.11	-0.0687 ± 0.11	-0.0582 ± 0.1	-0.125 ± 0.16	-0.0473 ± 0.13	-0.0192 ± 0.14	0.00696 ± 0.13	1.1e-05 ± 0.11	-0.0132 ± 0.098	0.00366 ± 0.082	0.101 ± 0.044	0.0593 ± 0.017	0.0551 ± 0.044	0.0492 ± 0.066	0.0223 ± 0.047	-0.191 ± 0.038
